Experimental findings from patent publication US20160002204A1 (Board of Regents, The University of Texas System, priority 2014, published 2016) are described below.

Experiment [1] has as its target T1, GLS1 (purified recombinant human GAC) (Homo sapiens, UniProt O94925).
T1 sequence (O94925 55-598 isoform O94925-3 limits assumed): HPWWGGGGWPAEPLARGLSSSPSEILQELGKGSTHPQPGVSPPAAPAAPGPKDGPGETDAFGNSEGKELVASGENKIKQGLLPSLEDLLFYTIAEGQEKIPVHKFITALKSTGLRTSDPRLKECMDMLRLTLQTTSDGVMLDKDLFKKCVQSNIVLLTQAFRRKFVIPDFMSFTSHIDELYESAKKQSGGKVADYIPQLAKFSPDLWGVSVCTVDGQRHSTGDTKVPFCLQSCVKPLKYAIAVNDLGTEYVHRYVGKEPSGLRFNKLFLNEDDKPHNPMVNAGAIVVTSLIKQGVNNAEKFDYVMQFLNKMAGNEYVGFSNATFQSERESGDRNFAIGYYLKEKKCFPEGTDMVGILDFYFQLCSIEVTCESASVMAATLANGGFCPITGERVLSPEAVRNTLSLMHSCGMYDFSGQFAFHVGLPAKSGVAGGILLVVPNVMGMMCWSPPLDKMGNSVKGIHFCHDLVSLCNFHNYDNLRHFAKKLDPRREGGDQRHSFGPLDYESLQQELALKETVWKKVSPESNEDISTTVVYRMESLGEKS
Put plainly: GLS1 enzymatic activity assay (dual-coupled, Amplex UltraRed/resorufin). The class given is biochemical. The method, boiled down: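 Recombinant human GAC (2 nM) preincubated with 50 mM potassium phosphate, then inhibitor (10 min each, RT); 1 mM glutamine, pH 7.4 Hepes buffer, 1% DMSO. Glutamate coupled via glutamate oxidase/HRP to resorufin (Ex 530/Em 590), kinetic or 20-min endpoint; IC50 by four-parameter logistic fit.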

Experiment [2] has as its system A549 cells. Nature of the experiment: A549 proliferation (viability) assay, Cell Titer Fluor, 72 hours. In kind it is cell-based. To be noted: Homo sapiens. A digest of the protocol: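 Compound was added to A549 cells (1000/well, pre-grown 24 h in RPMI 1640 plus 10% dialyzed FBS) at 0.5% DMSO and left 72 h under 37 °C, 5% CO2, ambient O2. Live-cell fluorescence (Cell Titer Fluor) gave the EC50.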

On to `O=C(Cc1ccccc1F)Nc1ccn(CCCCn2cc(C(=O)NCc3cccc(OC(F)(F)F)c3)nn2)c(=O)c1` [Example 55, 1-(4-{4-[2-(2-fluorophenyl)acetamido]-2-oxo-1,2-dihydropyridin-1-yl}butyl)-N-{[3-(trifluoromethoxy)phenyl]methyl}-1H-1,2,3-triazole-4-carboxamide], for which the half-inhibitory concentration (IC50) in experiment [1] is under 100 nM. This compound also came in with an EC50 in experiment [2] of 100 to 500 nM.

As to `O=C(CC1CCCOC1)Nc1ccn(CCCCn2cc(C(=O)NCc3cccc(OC(F)(F)F)c3)nn2)c(=O)c1` (centres unmarked) [Example 56, 1-(4-{4-[2-(oxan-3-yl)acetamido]-2-oxo-1,2-dihydropyridin-1-yl}butyl)-N-{[3-(trifluoromethoxy)phenyl]methyl}-1H-1,2,3-triazole-4-carboxamide], the IC50 in experiment [1] was under 100 nM. In experiment [2], this compound gave a 50% effective concentration (EC50) of 500 to 5000 nM.

In the case of `O=C(Nc1ccn(CCCCn2cc(C(=O)NCc3ccccn3)nn2)c(=O)c1)OCc1ccccc1` [Example 57, benzyl N-[2-oxo-1-(4-{4-[(pyridin-2-ylmethyl)carbamoyl]-1H-1,2,3-triazol-1-yl}butyl)-1,2-dihydropyridin-4-yl]carbamate], the IC50 in experiment [1] is 100 to 500 nM. This compound displayed an EC50 in experiment [2] of 500 to 5000 nM.

Consider `CNC(=O)c1ccn(CCCCn2cc(C(=O)NCc3cccc(OC(F)(F)F)c3)nn2)c(=O)c1` [Example 58, N-methyl-2-oxo-1-{4-[4-({[3-(trifluoromethoxy)phenyl]methyl}carbamoyl)-1H-1,2,3-triazol-1-yl]butyl}-1,2-dihydropyridine-4-carboxamide], for which, in experiment [1], the IC50 was in the range of 500 to 5000 nM. Besides, in experiment [2], the EC50 was over 5000 nM.

Consider `O=C(NCc1cccc(OC(F)(F)F)c1)c1ccn(CCCCn2cc(C(=O)NCc3cccc(OC(F)(F)F)c3)nn2)c(=O)c1` [Example 59, 2-oxo-N-{[3-(trifluoromethoxy)phenyl]methyl}-1-{4-[4-({[3-(trifluoro-methoxy)phenyl]methyl}carbamoyl)-1H-1,2,3-triazol-1-yl]butyl}-1,2-dihydropyridine-4-carboxamide], for which, in experiment [1], the IC50 was under 100 nM. In addition, in experiment [2], the EC50 is 100 to 500 nM.

Regarding `O=C(NCc1cccnc1)c1ccn(CCCCn2cc(C(=O)NCc3cccc(OC(F)(F)F)c3)nn2)c(=O)c1` [Example 60, 2-oxo-N-(pyridin-3-ylmethyl)-1-{4-[4-({[3-(trifluoro-methoxy)phenyl]methyl}carbamoyl)-1H-1,2,3-triazol-1-yl]butyl}-1,2-dihydropyridine-4-carboxamide], the IC50 in experiment [1] was in the range of 100 to 500 nM. The compound also displayed an EC50 in experiment [2] of over 5000 nM.

In the case of `COc1ccc(CNC(=O)c2ccn(CCCCn3cc(C(=O)NCc4cccc(OC(F)(F)F)c4)nn3)c(=O)c2)c(OC)c1` [Example 61, N-[(2,4-dimethoxyphenyl)methyl]-2-oxo-1-{4-[4-({[3-(trifluoro-methoxy)phenyl]methyl}carbamoyl)-1H-1,2,3-triazol-1-yl]butyl}-1,2-dihydropyridine-4-carboxamide], in experiment [1], the IC50 was in the range of 100 to 500 nM. The compound further came in with an EC50 in experiment [2] of 500 to 5000 nM.

With `CC(C)CNC(=O)c1ccn(CCCCn2cc(C(=O)NCc3cccc(OC(F)(F)F)c3)nn2)c(=O)c1` [Example 62, N-(2-methylpropyl)-2-oxo-1-{4-[4-({[3-(trifluoromethoxy)phenyl]methyl}carbamoyl)-1H-1,2,3-triazol-1-yl]butyl}-1,2-dihydropyridine-4-carboxamide], the IC50 in experiment [1] was 100 to 500 nM. Further, the EC50 in experiment [2] is 500 to 5000 nM.

For the compound `O=C(NCC1CCCCC1)c1ccn(CCCCn2cc(C(=O)NCc3cccc(OC(F)(F)F)c3)nn2)c(=O)c1` [Example 63, N-(cyclohexylmethyl)-2-oxo-1-{4-[4-({[3-(trifluoro-methoxy)phenyl]methyl}carbamoyl)-1H-1,2,3-triazol-1-yl]butyl}-1,2-dihydropyridine-4-carboxamide], the IC50 in experiment [1] is under 100 nM. The EC50 in experiment [2] lay within 100 to 500 nM.

For `O=C(Nc1ccn(CCCCn2cc(C(=O)NCc3cccc(OC(F)(F)F)c3)nn2)c(=O)c1)OCc1cccc(OC(F)(F)F)c1` [Example 64, [3-(trifluoromethoxy)phenyl]methyl N-(2-oxo-1-{4-[4-({[3-(trifluoro-methoxy)phenyl]methyl}carbamoyl)-1H-1,2,3-triazol-1-yl]butyl}-1,2-dihydropyridin-4-yl)carbamate], the IC50 in experiment [1] was under 100 nM. For the same compound, the EC50 in experiment [2] was 100 to 500 nM.

As for `COc1cccc(CNC(=O)c2cn(CCCCn3ccc(NC(=O)Cc4cccc(OC(F)(F)F)c4)cc3=O)nn2)c1` [Example 65, N-[(3-methoxyphenyl)methyl]-1-[4-(2-oxo-4-{2-[3-(trifluoromethoxy)phenyl]acetamido}-1,2-dihydropyridin-1-yl)butyl]-1H-1,2,3-triazole-4-carboxamide], in experiment [1], the IC50 is under 100 nM. Further, the EC50 in experiment [2] lay in the range of 500 to 5000 nM.

As to `O=C(Cc1cccc(OC(F)(F)F)c1)Nc1ccn(CCCCn2cc(C(=O)NCc3cccc(F)c3)nn2)c(=O)c1` [Example 66, N-[(3-fluorophenyl)methyl]-1-[4-(2-oxo-4-{2-[3-(trifluoromethoxy)phenyl]acetamido}-1,2-dihydropyridin-1-yl)butyl]-1H-1,2,3-triazole-4-carboxamide], in experiment [1], the IC50 was under 100 nM. In addition, the EC50 in experiment [2] lay in the range of 500 to 5000 nM.

For the compound `COc1ccc(CNC(=O)c2cn(CCCCn3ccc(NC(=O)Cc4cccc(OC(F)(F)F)c4)cc3=O)nn2)cc1` [Example 67, N-[(4-methoxyphenyl)methyl]-1-[4-(2-oxo-4-{2-[3-(trifluoromethoxy)phenyl]acetamido}-1,2-dihydropyridin-1-yl)butyl]-1H-1,2,3-triazole-4-carboxamide], the IC50 in experiment [1] was under 100 nM. The compound also displayed an EC50 in experiment [2] of 500 to 5000 nM.

Turning to `CS(=O)(=O)c1ccc(CNC(=O)c2cn(CCCCn3ccc(NC(=O)Cc4cccc(OC(F)(F)F)c4)cc3=O)nn2)cc1` [Example 68, N-[(4-methanesulfonylphenyl)methyl]-1-[4-(2-oxo-4-{2-[3-(trifluoromethoxy)phenyl]acetamido}-1,2-dihydropyridin-1-yl)butyl]-1H-1,2,3-triazole-4-carboxamide], the IC50 in experiment [1] is under 100 nM. Besides, the EC50 in experiment [2] was over 5000 nM.

Turning to `O=C(Cc1cccc(OC(F)(F)F)c1)Nc1ccn(CCCCn2cc(C(=O)NCc3cccnc3)nn2)c(=O)c1` [Example 69, 1-[4-(2-oxo-4-{2-[3-(trifluoromethoxy)phenyl]acetamido}-1,2-dihydropyridin-1-yl)butyl]-N-(pyridin-3-ylmethyl)-1H-1,2,3-triazole-4-carboxamide], the IC50 in experiment [1] was under 100 nM. For the same compound, the EC50 in experiment [2] is 500 to 5000 nM.

On to `Cc1ccc(CNC(=O)c2cn(CCCCn3ccc(NC(=O)Cc4cccc(OC(F)(F)F)c4)cc3=O)nn2)cn1` [Example 70, N-[(6-methylpyridin-3-yl)methyl]-1-[4-(2-oxo-4-{2-[3-(trifluoromethoxy)phenyl]acetamido}-1,2-dihydropyridin-1-yl)butyl]-1H-1,2,3-triazole-4-carboxamide], for which the IC50 in experiment [1] is under 100 nM. In addition, in experiment [2], the EC50 was 500 to 5000 nM.

As for `O=C(Cc1ccccc1)Nc1ccn(CCCCCn2ccc(NC(=O)Cc3ccccc3)nc2=O)c(=O)n1` [Example 71, N-(2-oxo-1-{5-[2-oxo-4-(2-phenyl-acetamido)-1,2-dihydropyrimidin-1-yl]pentyl}-1,2-dihydropyrimidin-4-yl)-2-phenylacetamide], the IC50 in experiment [1] was in the range of 500 to 5000 nM. The compound also returned an EC50 in experiment [2] of over 5000 nM.

For `Nc1nnc(CCCCn2ccc(NC(=O)Cc3ccccc3)nc2=O)s1` [Example 72, N-{1-[4-(5-amino-1,3,4-thiadiazol-2-yl)butyl]-2-oxo-1,2-dihydropyrimidin-4-yl}-2-phenylacetamide], the IC50 in experiment [1] is 500 to 5000 nM. Also, in experiment [2], the EC50 was over 5000 nM.

Consider `O=C(Cc1ccccc1)Nc1ccn(CCCCc2nnc(NC(=O)Cc3ccccc3)s2)c(=O)n1` [Example 73, N-(2-oxo-1-{4-[5-(2-phenylacetamido)-1,3,4-thiadiazol-2-yl]butyl}-1,2-dihydropyrimidin-4-yl)-2-phenylacetamide], for which, in experiment [1], the IC50 was under 100 nM. In experiment [2], this compound displayed an EC50 of 500 to 5000 nM.

Turning to `O=C(Cc1ccccc1)Nc1ccn(CCCCCc2nnc(NC(=O)Cc3ccccc3)s2)c(=O)n1` [Example 74, N-(2-oxo-1-{5-[5-(2-phenylacetamido)-1,3,4-thiadiazol-2-yl]pentyl}-1,2-dihydropyrimidin-4-yl)-2-phenylacetamide], the IC50 in experiment [1] was 500 to 5000 nM. This compound had an EC50 in experiment [2] of over 5000 nM.

On to `O=C(Cc1cccc(OC(F)(F)F)c1)Nc1ccc(CCCCn2ccc(NC(=O)Cc3ccccc3)nc2=O)nn1` [Example 75, N-{2-oxo-1-[4-(6-{2-[3-(trifluoro-methoxy)phenyl]acetamido}pyridazin-3-yl)butyl]-1,2-dihydropyrimidin-4-yl}-2-phenylacetamide], for which, in experiment [1], the IC50 is under 100 nM. The compound also gave an EC50 in experiment [2] of under 100 nM.

As for `CC(=O)Nc1ccn(CCCCc2ccc(NC(=O)Cc3cccc(OC(F)(F)F)c3)nn2)c(=O)n1` [Example 76, N-{6-[4-(4-acetamido-2-oxo-1,2-dihydropyrimidin-1-yl)butyl]pyridazin-3-yl}-2-[3-(trifluoromethoxy)phenyl]acetamide], the IC50 in experiment [1] is under 100 nM. This compound also had an EC50 in experiment [2] of 100 to 500 nM.
